# Data from US5700682A, “Mechanism based screen for retinoid X receptor agonists and antagonists” (American Cyanamid Company, priority 1995, dated 1997).
# Columns and labels:
# [1] = target: T1, RXRα (Homo sapiens, UniProt P19793); assay: Plate assay (X-GAL, blue halo) as a screen to detect RXRα agonists; format: cell-based; conditions: discs containing hormone on agar plate with X-GAL; FIG. 7
# T1 construct: reporter YRpA: two apoAI site A copies-CYC1-lacZ
# T1 sequence (P19793 1-462): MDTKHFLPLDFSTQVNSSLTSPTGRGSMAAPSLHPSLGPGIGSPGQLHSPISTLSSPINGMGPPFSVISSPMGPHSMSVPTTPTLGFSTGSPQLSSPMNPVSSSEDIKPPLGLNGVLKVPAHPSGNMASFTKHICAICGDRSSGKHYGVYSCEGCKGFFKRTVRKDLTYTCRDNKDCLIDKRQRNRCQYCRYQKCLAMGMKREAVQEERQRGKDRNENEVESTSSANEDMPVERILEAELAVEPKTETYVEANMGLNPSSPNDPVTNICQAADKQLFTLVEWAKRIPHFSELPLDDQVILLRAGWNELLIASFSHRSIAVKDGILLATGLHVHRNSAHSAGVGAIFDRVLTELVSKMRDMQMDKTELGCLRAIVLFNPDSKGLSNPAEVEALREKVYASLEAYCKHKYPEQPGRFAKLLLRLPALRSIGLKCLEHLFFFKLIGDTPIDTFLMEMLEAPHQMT
# Text: Yeast cells containing the RXRα expression plasmid and the reporter construct are inoculated in Yeast media containing the chromogenic substrate, X-GAL® (a registered trademark of 5-bromo-4-chloro-3-indolyl-β-D-galactopyranoside, commercially available from Gibco BRL, Bethesda, Md.).
# To identify nontoxic ligands of RXRα, the present invention includes a novel screen for detecting compounds having retinoid X receptor agonist or antagonist activity by the following steps: (1) Providing a yeast strain which expresses the […] and activates the reporter plasmid containing apoAI gene site A or a mutated variant thereof; (2) incubating the compound in suitable media and a colorless chromogenic substrate; and (3) examining the media for development of color. FIG. 7 illustrates the screen as a plate assay which detects RXRα agonists. Yeast cells containing the RXRα expression plasmid and the reporter construct are inoculated in yeast media containing the chromogenic substrate, X-GAL® (a registered trademark of 5-bromo-4-chloro-3-indolyl-β-D-galactopyranoside, commercially available from Gibco BRL, Bethesda, Md.). Other well-known chromogenic substrates may substitute for X-GAL®. Then, discs containing different test compounds may be placed on top of the agar plate. Induction of the reporter enzyme by the ligands of RXRα is reflected by the formation of a color.
# [2] = test system: RXRα binding to the apoAI gene site A; conditions: reticulocyte lysates; cited from earlier work
Compound,Induction of the reporter enzyme as reflected by formation of the blue halo [1],Binding of in vitro translated RXRα to apoAI gene site A on supplementing lysates with ligand [2]
C[C@]12CCC(=O)C=C1CC[C@@H]1[C@@H]2C(=O)C[C@@]2(C)[C@H]1CC[C@]2(O)C(=O)CO [cortisone],observed for 9-cis retinoic acid and all-trans-retinoic acids only,
CC(C)(O)CC[C@@H](O)[C@](C)(O)[C@H]1CC[C@@]2(O)C3=CC(=O)[C@@H]4C[C@@H](O)[C@@H](O)C[C@]4(C)[C@H]3CC[C@]12C [20-hydroxyecdysone],observed for 9-cis retinoic acid and all-trans-retinoic acids only,
"CC1=C(/C=C/C(C)=C/C=C/C(C)=C/C(=O)O)C(C)(C)CCC1 [all-trans-RA, all-trans-retinoic acid]",,to the lesser extent
"CC1=C(/C=C/C(C)=C\C=C\C(C)=C\C(=O)O)C(C)(C)CCC1 [9-cis-RA, 9-cis-retinoic acid]",,does not bind to the apoAI gene site A unless these lysates are supplemented
CC(=O)[C@H]1CC[C@H]2[C@@H]3CCC4=CC(=O)CC[C@]4(C)[C@H]3CC[C@]12C [progesterone],observed for 9-cis retinoic acid and all-trans-retinoic acids only,
C[C@]12CC[C@H]3[C@@H](CCC4=CC(=O)CC[C@@]43C)[C@@H]1CC[C@@H]2O [testosterone],observed for 9-cis retinoic acid and all-trans-retinoic acids only,
